Our source for the solubility values is US9518041B2, “(+)-5-(3,4-difluorophenyl)-5-[(3-methyl-2-oxopyridin-1(2H)-yl)methyl]imidazolidine-2,4-dione and drug containing same” (KAKEN PHARMACEUTICAL CO., LTD., priority 2013, dated 2016).

This data set is described as follows: Solubility test in the 2nd fluid for the disintegration test of the Japanese Pharmacopoeia. As to conditions: pH 6.8, aqueous buffer, thermodynamic from solid; pH6.8, shaken for 2 hours. The class given is physicochemical. The protocol:
Test substances (10.0 mg) were correctly weighed, and methanol was added to adjust to 10 mL. The solution was diluted by 10 times to prepare a solution of […].
In a centrifuge tube 5.0 mg of the test substance was weighed, added with 5.0 mL of the 2nd fluid for the disintegration test of the Japanese pharmacopoeia, supersonified for 3 minutes, and shaken for 2 hours thereafter. This solution was filitered with a membrane filter (0.2 μm), 500 μL the filtrate was measured, 500 μL of acetonitrile was added, and fully stirred to obtain the sample solution.
To 250 mL of 0.2 mol/L potassium dihydrogenphosphate aqueous solution, 118 mL of 0.2 mol/L sodium hydroxide aqueous solution and water was added to adjust to 1000 mL.
Using a high performance liquid chromatography, each of the sample solution for a calibration curve and sample solution for solubility measurement is measured twice to calculate an average area for each.
Based on the average area obtained in the above mentioned method, using an equation below to calculate a solubility. Solubility in the 2nd fluid for the disintegration test of the Japanese pharmacopoeia(μg/mL)=((P×2)/S)×100
S: Average area on the sample solution for a calibration curve
P: Average area on the sample solution for solubility measurement

In brackets after ≈: the same amount, converted by molar mass.

Compound `Cc1cccn(CC2(c3ccc(F)c(F)c3)NC(=O)NC2=O)c1=O` (single isomer, unassigned; (+)) [(+)-5-(3,4-difluorophenyl)-5-[(3-methyl-2-oxopyridin-1(2H)-yl)methyl]imidazolidine-2,4-dione] had a solubility at 2 h of 0.43 mg/mL (≈ 1290 µM).

By solubility is commonly meant the dissolved amount per volume that the medium holds.
